# Results taken from publication PMC11237753, “Discovery of α-(1→6)-linked mannan structures resembling yeast N-glycan outer chains in Aspergillus fumigatus mycelium” (mSphere, 2024).
# Legend:
# [1] = biological target: T1, Mnn2 (AfMnn2) (Aspergillus fumigatus, UniProt B0YD06); assay: reverse-phase HPLC of products; format: biochemical; conditions: acceptor 1.5 mM; 10 mM GDP-Man, 0.5 mM MnCl2, pH 6.8, 30 °C, 16 h
# T1 construct: gene AFUB_093840; N-terminal 6xHis, transmembrane residues 1-30 removed (31-493), expressed in E. coli SHuffle T7 Express, about 53 kDa
# T1 sequence (B0YD06 31-493): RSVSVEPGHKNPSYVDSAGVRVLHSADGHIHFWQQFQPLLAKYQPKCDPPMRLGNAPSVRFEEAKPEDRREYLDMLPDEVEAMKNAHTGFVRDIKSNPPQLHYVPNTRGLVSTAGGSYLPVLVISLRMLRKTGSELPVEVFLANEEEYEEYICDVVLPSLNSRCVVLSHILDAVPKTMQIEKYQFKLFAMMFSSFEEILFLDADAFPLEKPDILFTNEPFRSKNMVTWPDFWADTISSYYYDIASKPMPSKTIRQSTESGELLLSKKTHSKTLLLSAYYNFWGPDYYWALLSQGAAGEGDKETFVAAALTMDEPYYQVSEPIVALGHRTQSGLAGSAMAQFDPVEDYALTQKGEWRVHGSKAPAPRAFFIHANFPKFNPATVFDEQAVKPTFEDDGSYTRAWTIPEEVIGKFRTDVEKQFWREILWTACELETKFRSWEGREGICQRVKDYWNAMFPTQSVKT
# [2] = biological target: T2, Mnn5 (AfMnn5) (Aspergillus fumigatus, UniProt B0Y1T7); assay: reverse-phase HPLC of products; format: biochemical; conditions: acceptor 1.5 mM; 10 mM GDP-Man, 0.5 mM MnCl2, pH 6.8, 30 °C, 16 h
# T2 construct: gene AFUB_060800; N-terminal 6xHis, transmembrane residues 1-29 removed (30-492), expressed in E. coli SHuffle T7 Express, about 52 kDa
# T2 sequence (B0Y1T7 30-492): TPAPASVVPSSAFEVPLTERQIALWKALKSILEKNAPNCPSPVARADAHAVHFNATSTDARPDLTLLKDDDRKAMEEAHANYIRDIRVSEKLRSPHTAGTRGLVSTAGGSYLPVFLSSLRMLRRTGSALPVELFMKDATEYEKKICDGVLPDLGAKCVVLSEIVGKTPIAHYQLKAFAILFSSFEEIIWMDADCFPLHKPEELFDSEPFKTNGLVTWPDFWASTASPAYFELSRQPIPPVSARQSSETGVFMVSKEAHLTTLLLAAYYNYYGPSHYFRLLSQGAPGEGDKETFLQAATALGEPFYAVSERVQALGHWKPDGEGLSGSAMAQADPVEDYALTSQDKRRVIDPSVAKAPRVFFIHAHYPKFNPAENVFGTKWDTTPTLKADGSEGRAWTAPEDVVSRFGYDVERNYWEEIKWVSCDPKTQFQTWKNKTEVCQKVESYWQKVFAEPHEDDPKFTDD
compound,measurement,setting,value
O=[N+]([O-])c1ccc(O[C@H]2O[C@H](CO)[C@@H](O)[C@H](O)[C@@H]2O)cc1 [p-nitrophenyl α-D-mannopyranoside],reverse-phase HPLC of products,[1],fractions containing Mnn2 or Mnn5 revealed new products
same,reverse-phase HPLC of products,[2],fractions containing Mnn2 or Mnn5 revealed new products
